Measurements reported in US20230295200A1 (REGENTS OF THE UNIVERSITY OF MICHIGAN, priority 2022, published 2023).

Legend:
STAT6 protein = biological target: T1, STAT6 protein (Homo sapiens, UniProt P42226); experiment: Fluorescence polarization (FP) binding assay, STAT6; conditions: FP competition, 5 nM fluorescein-labeled tracer, 200 nM protein, PBS pH7.4; read-out: Binding STAT6
T1 sequence (P42226 1-847): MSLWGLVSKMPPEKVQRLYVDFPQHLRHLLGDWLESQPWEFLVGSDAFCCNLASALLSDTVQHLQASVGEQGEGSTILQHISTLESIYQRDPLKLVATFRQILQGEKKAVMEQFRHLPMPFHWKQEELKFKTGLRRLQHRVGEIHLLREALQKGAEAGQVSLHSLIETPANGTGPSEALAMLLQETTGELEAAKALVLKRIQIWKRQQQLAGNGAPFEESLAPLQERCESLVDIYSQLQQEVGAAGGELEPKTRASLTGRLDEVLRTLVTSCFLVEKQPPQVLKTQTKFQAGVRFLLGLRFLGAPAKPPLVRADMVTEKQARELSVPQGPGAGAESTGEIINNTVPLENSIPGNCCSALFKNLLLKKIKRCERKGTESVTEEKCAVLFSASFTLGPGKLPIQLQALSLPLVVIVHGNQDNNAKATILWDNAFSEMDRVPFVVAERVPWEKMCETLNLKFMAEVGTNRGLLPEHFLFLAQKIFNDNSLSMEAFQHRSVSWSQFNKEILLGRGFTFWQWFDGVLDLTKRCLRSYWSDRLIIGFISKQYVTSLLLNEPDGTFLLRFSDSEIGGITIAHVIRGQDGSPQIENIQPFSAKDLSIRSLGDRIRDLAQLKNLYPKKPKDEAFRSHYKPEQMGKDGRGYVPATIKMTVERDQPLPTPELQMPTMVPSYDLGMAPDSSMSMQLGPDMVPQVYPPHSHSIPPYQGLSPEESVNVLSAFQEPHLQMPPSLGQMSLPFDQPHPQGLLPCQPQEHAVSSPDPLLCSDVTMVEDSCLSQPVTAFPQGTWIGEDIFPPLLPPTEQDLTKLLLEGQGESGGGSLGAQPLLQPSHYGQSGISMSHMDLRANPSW
How it was run: (§1)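 Fluorescein-labelled tracer (5 nM) with 200 nM STAT5 and/or STAT6 protein in PBS pH 7.4, 0.01% BGG, 0.01% Tween-20, 2 mM DTT. Mixed 15 min, then equilibrated 1 h at room temperature; read by fluorescence polarization, constants from nonlinear curve fitting.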

STAT5A = biological target: T2, STAT5A (Homo sapiens, UniProt P42229); experiment: Fluorescence polarization (FP) binding assay, STAT5A; conditions: FP competition, 5 nM fluorescein-labeled tracer, 200 nM protein, PBS pH7.4
T2 sequence (P42229 1-794): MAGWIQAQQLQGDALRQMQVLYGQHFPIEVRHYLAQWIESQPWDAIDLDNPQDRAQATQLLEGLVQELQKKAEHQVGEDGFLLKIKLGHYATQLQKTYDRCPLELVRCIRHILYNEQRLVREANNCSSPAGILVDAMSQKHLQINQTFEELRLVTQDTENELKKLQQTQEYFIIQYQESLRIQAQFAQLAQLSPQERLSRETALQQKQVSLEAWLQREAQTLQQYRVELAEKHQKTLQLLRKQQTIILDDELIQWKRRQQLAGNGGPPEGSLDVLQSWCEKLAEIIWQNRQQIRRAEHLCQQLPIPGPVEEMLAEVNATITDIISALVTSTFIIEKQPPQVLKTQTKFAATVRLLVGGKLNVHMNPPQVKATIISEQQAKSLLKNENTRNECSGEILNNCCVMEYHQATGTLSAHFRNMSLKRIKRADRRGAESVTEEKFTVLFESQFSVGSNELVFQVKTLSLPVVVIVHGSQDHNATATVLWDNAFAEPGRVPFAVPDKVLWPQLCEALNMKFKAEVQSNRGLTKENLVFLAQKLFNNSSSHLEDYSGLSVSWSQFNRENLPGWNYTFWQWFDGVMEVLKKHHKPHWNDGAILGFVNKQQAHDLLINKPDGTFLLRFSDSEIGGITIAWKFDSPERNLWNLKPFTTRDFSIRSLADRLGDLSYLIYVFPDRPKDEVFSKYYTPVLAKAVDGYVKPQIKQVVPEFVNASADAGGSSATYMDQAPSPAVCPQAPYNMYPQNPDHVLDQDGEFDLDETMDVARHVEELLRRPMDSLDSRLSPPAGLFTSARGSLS
How it was run: as §1

In the case of `CCC[C@H](NC(=O)c1cc2cc(C(F)(F)P(=O)(O)O)ccc2s1)C(=O)N1CCC[C@H]1C(=O)N1CCO[C@@H](c2ccccc2)C1` [Compound 152, (difluoro(2-(((S)-1-oxo-1-((S)-2-((S)-2-phenylmorpholine-4-carbonyl)pyrrolidin-1-yl)pentan-2-yl)carbamoyl)benzo[b]thiophen-5-yl)methyl)phosphonic acid], the Ki (STAT6 protein) is reported as 1 to 10 µM and the Ki (STAT5A) is reported as over 10 µM.

For `C#CC[C@H](NC(=O)c1cc2cc(C(F)(F)P(=O)(O)O)ccc2s1)C(=O)N1CCC[C@H]1C(=O)N1CCO[C@@H](c2ccccc2)C1` [Compound 153, (difluoro(2-(((S)-1-oxo-1-((S)-2-((S)-2-phenylmorpholine-4-carbonyl)pyrrolidin-1-yl)pent-4-yn-2-yl)carbamoyl)benzo[b]thiophen-5-yl)methyl)phosphonic acid], the Ki (STAT6 protein) was 1 to 10 µM and the Ki (STAT5A) was over 10 µM.

With `O=C(N[C@H](C(=O)N1CCC[C@H]1C(=O)N1CCO[C@@H](c2ccccc2)C1)C1CC1)c1cc2cc(C(F)(F)P(=O)(O)O)ccc2s1` [Compound 154, ((2-(((S)-1-cyclopropyl-2-oxo-2-((S)-2-((S)-2-phenylmorpholine-4-carbonyl)pyrrolidin-1-yl)ethyl)carbamoyl)benzo[b]thiophen-5-yl)difluoromethyl)phosphonic acid] the Ki (STAT6 protein) was 1 to 10 µM and the Ki (STAT5A) was over 10 µM.

`O=C(NC1(C(=O)N2CCC[C@H]2C(=O)N2CCO[C@@H](c3ccccc3)C2)CCC1)c1cc2cc(C(F)(F)P(=O)(O)O)ccc2s1` [Compound 155, (difluoro(2-((1-((S)-2-((S)-2-phenylmorpholine-4-carbonyl)pyrrolidine-1-carbonyl)cyclobutyl)carbamoyl)benzo [b]thiophen-5-yl)methyl)phosphonic acid] gave a Ki (STAT6 protein) of over 10 µM and a Ki (STAT5A) of over 10 µM.

`CC(C)(O)[C@H](NC(=O)c1cc2cc(C(F)(F)P(=O)(O)O)ccc2s1)C(=O)N1CCC[C@H]1C(=O)N1CCO[C@@H](c2ccccc2)C1` [Compound 156, (difluoro(2-(((S)-3-hydroxy-3-methyl-1-oxo-1-((S)-2-((S)-2-phenylmorpholine-4-carbonyl)pyrrolidin-1-yl)butan-2-yl)carbamoyl)benzo[b]thiophen-5-yl)methyl)phosphonic acid] gave a Ki (STAT6 protein) of 1 to 10 µM and a Ki (STAT5A) of over 10 µM.

For `CC(=O)N1CC[C@H]2CC[C@@H](C(=O)N3CCC[C@@H](c4ccccc4)C3)N2C(=O)[C@@H](NC(=O)c2cc3cc(C(F)(F)P(=O)(O)O)ccc3s2)C1` [Compound 157, ((2-(((5S,8S,10aR)-3-acetyl-6-oxo-8-((S)-3-phenylpiperidine-1-carbonyl)decahydropyrrolo[1,2-a][1,5]diazocin-5-yl)carbamoyl)benzo[b]thiophen-5-yl)difluoromethyl)phosphonic acid], the Ki (STAT6 protein) was 1 to 10 µM and the Ki (STAT5A) was over 10 µM.

`CC(=O)N1CC[C@H]2CC[C@@H](C(=O)N3CCC[C@H](c4ccccc4)C3)N2C(=O)[C@@H](NC(=O)c2cc3cc(C(F)(F)P(=O)(O)O)ccc3s2)C1` [Compound 158, ((2-(((5S,8S,10aR)-3-acetyl-6-oxo-8-((R)-3-phenylpiperidine-1-carbonyl)decahydropyrrolo[1,2-a][1,5]diazocin-5-yl)carbamoyl)benzo[b]thiophen-5-yl)difluoromethyl)phosphonic acid] showed a Ki (STAT6 protein) of 0.1 to 1 µM and a Ki (STAT5A) of over 10 µM.

With `CC(=O)N1CC[C@H]2CC[C@@H](C(=O)N3CCOC(C)(c4ccc(F)cc4)C3)N2C(=O)[C@@H](NC(=O)c2cc3cc(C(F)(F)P(=O)(O)O)ccc3s2)C1` (stereo partly drawn) [Compound 159, ((2-(((5S,8S,10aR)-3-acetyl-8-(2-(4-fluorophenyl)-2-methylmorpholine-4-carbonyl)-6-oxodecahydropyrrolo[1,2-a][1,5]diazocin-5-yl)carbamoyl)benzo[b]thiophen-5-yl)difluoromethyl)phosphonic acid] the Ki (STAT6 protein) was 1 to 10 µM and the Ki (STAT5A) was over 10 µM.

With `CC(=O)N1CC[C@H]2CC[C@@H](C(=O)N3CCOC(C)(c4ccc(Cl)cc4)C3)N2C(=O)[C@@H](NC(=O)c2cc3cc(C(F)(F)P(=O)(O)O)ccc3s2)C1` (stereo partly drawn) [Compound 160, ((2-(((5S,8S,10aR)-3-acetyl-8-(2-(4-chlorophenyl)-2-methylmorpholine-4-carbonyl)-6-oxodecahydropyrrolo[1,2-a][1,5]diazocin-5-yl)carbamoyl)benzo[b]thiophen-5-yl)difluoromethyl)phosphonic acid] the Ki (STAT6 protein) was 1 to 10 µM and the Ki (STAT5A) was over 10 µM.

In the case of `CC(=O)N1CC[C@H]2CC[C@@H](C(=O)N3CCOC(c4ccc(F)cc4)C3)N2C(=O)[C@@H](NC(=O)c2cc3cc(C(F)(F)P(=O)(O)O)ccc3s2)C1` (stereo partly drawn) [Compound 161, ((2-(((5S,8S,10aR)-3-acetyl-8-(2-(4-fluorophenyl)morpholine-4-carbonyl)-6-oxodecahydropyrrolo[1,2-a][1,5]diazocin-5-yl)carbamoyl)benzo[b]thiophen-5-yl)difluoromethyl)phosphonic acid], the Ki (STAT6 protein) is reported as 0.1 to 1 µM and the Ki (STAT5A) is reported as over 10 µM.

In the case of `CC(=O)N1CC[C@H]2CC[C@@H](C(=O)N3CCOC(c4cccc(Cl)c4)C3)N2C(=O)[C@@H](NC(=O)c2cc3cc(C(F)(F)P(=O)(O)O)ccc3s2)C1` (stereo partly drawn) [Compound 162, ((2-(((5S,8S,10aR)-3-acetyl-8-(2-(3-chlorophenyl)morpholine-4-carbonyl)-6-oxodecahydropyrrolo[1,2-a][1,5]diazocin-5-yl)carbamoyl)benzo[b]thiophen-5-yl)difluoromethyl)phosphonic acid], the Ki (STAT6 protein) is reported as 0.1 to 1 µM and the Ki (STAT5A) is reported as over 10 µM.

`CC(=O)N1CC[C@H]2CC[C@@H](C(=O)N3CCOC(c4cc(F)c(Cl)cc4Cl)C3)N2C(=O)[C@@H](NC(=O)c2cc3cc(C(F)(F)P(=O)(O)O)ccc3s2)C1` (stereo partly drawn) [Compound 163, ((2-(((5S,8S,10aR)-3-acetyl-8-(2-(2,4-dichloro-5-fluorophenyl)morpholine-4-carbonyl)-6-oxodecahydropyrrolo[1,2-a][1,5]diazocin-5-yl)carbamoyl)benzo[b]thiophen-5-yl)difluoromethyl)phosphonic acid] was tested, and the Ki (STAT6 protein) was 1 to 10 µM and the Ki (STAT5A) was over 10 µM.

For `CC(=O)N1CC[C@H]2CC[C@@H](C(=O)N3CCOC(c4ccccc4C)C3)N2C(=O)[C@@H](NC(=O)c2cc3cc(C(F)(F)P(=O)(O)O)ccc3s2)C1` (stereo partly drawn) [Compound 164, ((2-(((5S,8S,10aR)-3-acetyl-6-oxo-8-(2-(o-tolyl)morpholine-4-carbonyl)decahydropyrrolo[1,2-a][1,5]diazocin-5-yl)carbamoyl)benzo[b]thiophen-5-yl)difluoromethyl)phosphonic acid], the Ki (STAT6 protein) was 1 to 10 µM and the Ki (STAT5A) was over 10 µM.

In the case of `CC(=O)N1CC[C@H]2CC[C@@H](C(=O)Nc3ncc(-c4ccccc4)s3)N2C(=O)[C@@H](NC(=O)c2cc3cc(C(F)(F)P(=O)(O)O)ccc3s2)C1` [Compound 165, ((2-(((5S,8S,10aR)-3-acetyl-6-oxo-8-((5-phenylthiazol-2-yl)carbamoyl)decahydropyrrolo[1,2-a][1,5]diazocin-5-yl)carbamoyl)benzo[b]thiophen-5-yl)difluoromethyl)phosphonic acid], the Ki (STAT6 protein) is reported as 1 to 10 µM and the Ki (STAT5A) is reported as 1 to 10 µM.

With `CC(=O)N1CCN(C(=O)[C@@H]2CCCN2C(=O)[C@@H](NC(=O)c2cc3cc(C(F)(F)P(=O)(O)O)ccc3s2)C(C)(C)C)C[C@H]1c1ccccc1` [Compound 166, ((2-(((S)-1-((S)-2-((R)-4-acetyl-3-phenylpiperazine-1-carbonyl)pyrrolidin-1-yl)-3,3-dimethyl-1-oxobutan-2-yl)carbamoyl)benzo[b]thiophen-5-yl)difluoromethyl)phosphonic acid] the Ki (STAT6 protein) was 1 to 10 µM and the Ki (STAT5A) was over 10 µM.
